Experimental data from patent US11304934B2, “Use of isoxazoline derivatives for the treatment or prevention of arthropod infestations in poultry” (Intervet Inc., priority 2013, dated 2022).

Assays:
[1] = system: Dermanyssus gallinae; experiment: Efficacy of fluralaner via medicated drinking water against artificially induced poultry red mite infestations of laying hens; type: in vivo; conditions: for % Inhibition of mites 24 hours after infestation / % Mortality of mites 24 hours after infestation: laying hens
Method: (§1) Groups A-D (n=6) were treated with doses of 2, 1 and 0.5 mg fluralaner/kg BW once or 1 mg fluralaner/kg BW split dose (0.5 mg/kg BW on 2 occasions).
Drinking water consumption in each was measured on three days prior to administration to calculate the average daily water consumption. Medicated water was prepared by diluting a fluralaner solution (10 mg/mL) as shown in the table below to the calculated fluralaner concentration.
(§2) On D0 (group D additionally on D7), the hens in groups A-D received fluralaner via medicated drinking water. Group E received un-medicated drinking water ad libitum.
The dose to be administered was calculated based on average body weights of each treatment group, obtained one day before treatment (D-1, D6). A fluralaner stock solution was diluted in the drinking water to prepare medicated water ready for consumption.
The volume of medicated water offered per group on D0 (group D also on D7) was approximately 50% of the calculated mean daily water intake measured previously in the respective group in order to ensure consumption of the full dose.
Once all medicated water was consumed the other 50% volume of the mean daily water intake was supplied as tap water in the same drinker.
On Day 1, Day 5, Day 8, Day 12, D15, D19 and D22 four of six hens per group were infested with approximately 200 vital, D. gallinae mites (unfed nymphs and adults that starved before infestation for 7 days).
From each infested hen approximately 25 engorged mites were collected and incubated for approximately 24 hours. The dead, damaged and/or live mites were counted visually using a binocular.
Mites were classified as dead if no movement was determined or mites lay in a dorsal position. Mites were classified as damaged if their movement was uncoordinated.
The Mite Mortality and Mite Inhibition percentage was calculated for each treated group in comparison to a not-treated negative control group.

[2] = Tolerability of fluralaner via medicated drinking water in hens; type: in vivo, laying hens; conditions: 2, 1, 0.5 mg/kg BW once or 2 × 0.5 mg/kg BW via medicated drinking water
Method: as §1, §2

[3] = Group A, 2 mg/kg BW once (D0) via drinking water, infestation on D1
[4] = Group A, 2 mg/kg BW once (D0) via drinking water, infestation on D5
[5] = Group A, 2 mg/kg BW once (D0) via drinking water, infestation on D8
[6] = Group A, 2 mg/kg BW once (D0) via drinking water, infestation on D12
[7] = Group A, 2 mg/kg BW once (D0) via drinking water, infestation on D15
[8] = Group A, 2 mg/kg BW once (D0) via drinking water, infestation on D19
[9] = Group A, 2 mg/kg BW once (D0) via drinking water, infestation on D22
[10] = Group B, 1 mg/kg BW once (D0) via drinking water, infestation on D1
[11] = Group B, 1 mg/kg BW once (D0) via drinking water, infestation on D5
[12] = Group B, 1 mg/kg BW once (D0) via drinking water, infestation on D8
[13] = Group B, 1 mg/kg BW once (D0) via drinking water, infestation on D12
[14] = Group B, 1 mg/kg BW once (D0) via drinking water, infestation on D15
[15] = Group B, 1 mg/kg BW once (D0) via drinking water, infestation on D19
[16] = Group B, 1 mg/kg BW once (D0) via drinking water, infestation on D22
[17] = Group C, 0.5 mg/kg BW once (D0) via drinking water, infestation on D1
[18] = Group C, 0.5 mg/kg BW once (D0) via drinking water, infestation on D5
[19] = Group C, 0.5 mg/kg BW once (D0) via drinking water, infestation on D8
[20] = Group C, 0.5 mg/kg BW once (D0) via drinking water, infestation on D12
[21] = Group C, 0.5 mg/kg BW once (D0) via drinking water, infestation on D15
[22] = Group C, 0.5 mg/kg BW once (D0) via drinking water, infestation on D19
[23] = Group C, 0.5 mg/kg BW once (D0) via drinking water, infestation on D22
[24] = Group D, 1 (2 × 0.5) mg/kg BW split dose on D0 and D7 via drinking water, infestation on D1
[25] = Group D, 1 (2 × 0.5) mg/kg BW split dose on D0 and D7 via drinking water, infestation on D5
[26] = Group D, 1 (2 × 0.5) mg/kg BW split dose on D0 and D7 via drinking water, infestation on D8
[27] = Group D, 1 (2 × 0.5) mg/kg BW split dose on D0 and D7 via drinking water, infestation on D12
[28] = Group D, 1 (2 × 0.5) mg/kg BW split dose on D0 and D7 via drinking water, infestation on D15
[29] = Group D, 1 (2 × 0.5) mg/kg BW split dose on D0 and D7 via drinking water, infestation on D19
[30] = Group D, 1 (2 × 0.5) mg/kg BW split dose on D0 and D7 via drinking water, infestation on D22

Cc1cc(C2=NOC(c3cc(Cl)cc(Cl)c3)(C(F)(F)F)C2)ccc1C(=O)NCC(=O)NCC(F)(F)F (stereo not shown) [fluralaner, 4-[5-(3,5-Dichlorophenyl)-5-trifluoromethyl-4,5-dihydroisoxazol-3-yl]-2-methyl-N-[(2,2,2-trifluoro-ethylcarbamoyl)-methyl]-benzamide]
% Inhibition of mites 24 hours after infestation [1, 3]: 100%
% Mortality of mites 24 hours after infestation [1, 3]: 100%
% Inhibition of mites 24 hours after infestation [1, 4]: 100%
% Mortality of mites 24 hours after infestation [1, 4]: 100%
% Inhibition of mites 24 hours after infestation [1, 5]: 100%
% Mortality of mites 24 hours after infestation [1, 5]: 100%
% Inhibition of mites 24 hours after infestation [1, 6]: 100%
% Mortality of mites 24 hours after infestation [1, 6]: 100%
% Inhibition of mites 24 hours after infestation [1, 7]: 81%
% Mortality of mites 24 hours after infestation [1, 7]: 77%
% Inhibition of mites 24 hours after infestation [1, 8]: 14%
% Mortality of mites 24 hours after infestation [1, 8]: 1%
% Inhibition of mites 24 hours after infestation [1, 9]: 0%
% Mortality of mites 24 hours after infestation [1, 9]: 0%
% Inhibition of mites 24 hours after infestation [1, 10]: 100%
% Mortality of mites 24 hours after infestation [1, 10]: 100%
% Inhibition of mites 24 hours after infestation [1, 11]: 100%
% Mortality of mites 24 hours after infestation [1, 11]: 100%
% Inhibition of mites 24 hours after infestation [1, 12]: 100%
% Mortality of mites 24 hours after infestation [1, 12]: 100%
% Inhibition of mites 24 hours after infestation [1, 13]: 95%
% Mortality of mites 24 hours after infestation [1, 13]: 94%
% Inhibition of mites 24 hours after infestation [1, 14]: 81%
% Mortality of mites 24 hours after infestation [1, 14]: 77%
% Inhibition of mites 24 hours after infestation [1, 15]: 3%
% Mortality of mites 24 hours after infestation [1, 15]: 2%
% Inhibition of mites 24 hours after infestation [1, 16]: 0%
% Mortality of mites 24 hours after infestation [1, 16]: 0%
% Inhibition of mites 24 hours after infestation [1, 17]: 100%
% Mortality of mites 24 hours after infestation [1, 17]: 100%
% Inhibition of mites 24 hours after infestation [1, 18]: 100%
% Mortality of mites 24 hours after infestation [1, 18]: 100%
% Inhibition of mites 24 hours after infestation [1, 19]: 100%
% Mortality of mites 24 hours after infestation [1, 19]: 97%
% Inhibition of mites 24 hours after infestation [1, 20]: 75%
% Mortality of mites 24 hours after infestation [1, 20]: 55%
% Inhibition of mites 24 hours after infestation [1, 21]: 19%
% Mortality of mites 24 hours after infestation [1, 21]: 15%
% Inhibition of mites 24 hours after infestation [1, 22]: 0%
% Mortality of mites 24 hours after infestation [1, 22]: 0%
% Inhibition of mites 24 hours after infestation [1, 23]: 0%
% Mortality of mites 24 hours after infestation [1, 23]: 0%
% Inhibition of mites 24 hours after infestation [1, 24]: 100%
% Mortality of mites 24 hours after infestation [1, 24]: 100%
% Inhibition of mites 24 hours after infestation [1, 25]: 100%
% Mortality of mites 24 hours after infestation [1, 25]: 100%
% Inhibition of mites 24 hours after infestation [1, 26]: 100%
% Mortality of mites 24 hours after infestation [1, 26]: 100%
% Inhibition of mites 24 hours after infestation [1, 27]: 100%
% Mortality of mites 24 hours after infestation [1, 27]: 100%
% Inhibition of mites 24 hours after infestation [1, 28]: 99%
% Mortality of mites 24 hours after infestation [1, 28]: 98%
% Inhibition of mites 24 hours after infestation [1, 29]: 66%
% Mortality of mites 24 hours after infestation [1, 29]: 59%
% Inhibition of mites 24 hours after infestation [1, 30]: 27%
% Mortality of mites 24 hours after infestation [1, 30]: 14%
Onset of action against red mites ([1]; all administered doses, orally via drinking water): fast onset of action
Tolerability in hens [2]: well tolerated
